In PMC12677653, “Inhibition of Tumor Lipogenesis and Growth by Peptide‐Based Targeting of SREBP Activation” (Advanced Science, 2025):
Values belong to the molecule of their own block, whether it stands above or below them. Residues, ends and D or L forms follow the SMILES beside them.

What was measured:
Huh7 cells = assay: Cellular peptide uptake, western blot; type: in vitro ADME, human; settings: biotin-labeled peptide 15 μM, 30 min, TAT versus TAT-LOF sequence
Description: d) Huh7 cells were incubated for 30 min with biotin-labeled Insig1/2 loop1 peptide (15 μM), either with TAT or TAT loss of function (TAT-LOF) sequence, with subsequent western blot analysis of cellular peptide uptake.

[1] = test system: lipid accumulation in tumor tissues; assay: Oil Red O staining of tumor tissues; type: in vivo, BALB/c athymic nude mice; settings: cryosections of Huh7 tumors, n = 4; peptide given as LNP 10 mg/kg iv; lenvatinib mesylate 2 mg/kg oral
Description: (§1) Representative micrographs are shown (scale bar: 20 µm). b,c) Cryosections of mouse tumor tissues were prepared for histological analysis. (b) Lipid accumulation was assessed by Oil Red O staining. Representative micrographs are shown (scale bar: 20 µm). (c) Apoptotic cells were detected by TUNEL assay. Representative micrographs are shown (scale bar: 20 µm). d,e) Quantitative analysis of (d) apoptotic areas (TUNEL‐positive regions) and (e) lipid droplet counts (Oil Red O‐positive particles) was performed. Data represent the mean ± SD (n = 4). Statistical significance was determined by one‐way analysis of variance (ANOVA). ** p < 0.01, **** p < 0.0001, ns, no significance.
Cryosections 6–8 µm in thickness were air‐dried and fixed with formaldehyde for 5–10 min. Then, the slides were placed in absolute propylene glycol for 2–5 min and stained with 0.5% Oil red O dye. After staining, the slides were rinsed, counterstained with Mayer's hematoxylin for 1 min, and mounted in glycerin.

tumor cell apoptosis = assay: TUNEL assay of tumor tissues; type: in vivo, BALB/c athymic nude mice; settings: cryosections of Huh7 tumors, n = 4; peptide given as LNP 10 mg/kg iv; lenvatinib mesylate 2 mg/kg oral
Description: as §1
Mouse tumor tissues were sectioned at 5 µm thickness. Apoptotic cells were counted using the colorimetric TUNEL System (Beyotime, C1091) according to the manufacturer's instructions. The total numbers of apoptotic cells were counted in six high‐power fields and presented as an average number of apoptotic cells per high‐power fields.

[2] = test system: Insig1 pS207/Insig2 pS151, SREBP1, Ki67; assay: IHC analysis of mouse tumors derived from Huh7 cells; type: in vivo, BALB/c athymic nude mice; settings: peptide given as LNP@Insig1/2 loop 1 peptide 10 mg/kg iv, lenvatinib mesylate 2 mg/kg oral
Description: as §1
As described previously,^[ [39] ^] IHC staining was performed using the Vectastain ABC kit (Vector Laboratories) according to the manufacturer's instructions. Sections of paraffin‐embedded xenograft tumors were stained with antibodies against Ki67, SREBP1, Insig1 pS207/Insig2 pS151, and nonspecific IgG was used as a negative control. Paraffin‐embedded human liver tumor sections were stained with antibodies against Ki67, SREBP1, Insig1 pS207/Insig2 pS151, with nonspecific IgG as a negative control. The tissue sections were quantitatively scored according to the percentage of positive cells and staining intensity. […] The intensity of staining was rated on a scale of 0 to 3: 0, negative; 1, weak; 2, moderate; and 3, strong. The study then combined the proportion and intensity scores to obtain a total score (range, 0–8).

WT GST-PCK1 = target: T1, WT GST-PCK1 (human, UniProt P35558 1-622, biotin (G-MM-IGT Biotinylation kit)); assay: BLI
T1 chain: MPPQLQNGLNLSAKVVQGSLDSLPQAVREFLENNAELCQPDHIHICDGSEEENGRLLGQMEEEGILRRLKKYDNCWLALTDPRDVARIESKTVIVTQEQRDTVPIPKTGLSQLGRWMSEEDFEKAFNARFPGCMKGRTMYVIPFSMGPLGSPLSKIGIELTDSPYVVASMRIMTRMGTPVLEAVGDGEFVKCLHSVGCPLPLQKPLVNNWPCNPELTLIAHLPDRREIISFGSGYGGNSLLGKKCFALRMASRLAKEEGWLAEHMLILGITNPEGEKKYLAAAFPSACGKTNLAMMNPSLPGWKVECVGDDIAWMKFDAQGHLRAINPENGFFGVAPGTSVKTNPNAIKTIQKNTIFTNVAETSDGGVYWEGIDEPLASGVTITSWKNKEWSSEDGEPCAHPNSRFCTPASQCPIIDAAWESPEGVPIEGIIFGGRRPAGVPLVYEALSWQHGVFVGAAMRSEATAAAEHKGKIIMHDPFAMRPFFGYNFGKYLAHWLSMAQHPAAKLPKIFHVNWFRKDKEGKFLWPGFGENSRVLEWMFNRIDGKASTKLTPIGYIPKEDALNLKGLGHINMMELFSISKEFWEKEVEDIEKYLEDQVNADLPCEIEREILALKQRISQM

[3] = target: T2, S90-phosphorylated GST-PCK1 (human, UniProt P35558 1-622, phosphoserine at 90; biotin (G-MM-IGT Biotinylation kit)); assay: BLI; phosphorylated S90
T2 chain: T1 chain

Molecule: CC[C@H](C)[C@H](NC(=O)[C@H](CS)NC(=O)[C@@H]1CCCN1C(=O)[C@H](Cc1ccc(O)cc1)NC(=O)[C@H](CC(C)C)NC(=O)CCCC[C@@H]1SC[C@@H]2NC(=O)N[C@@H]21)C(=O)N[C@@H](CC(=O)O)C(=O)N[C@@H](CO)C(=O)N[C@@H](Cc1c[nH]cn1)C(=O)N[C@@H](CC(C)C)C(=O)NCC(=O)N[C@@H](CCC(=O)O)C(=O)N1CCC[C@H]1C(=O)N[C@@H](Cc1c[nH]cn1)C(=O)N[C@@H](CCCCN)C(=O)N[C@@H](Cc1ccccc1)C(=O)N[C@@H](CCCCN)C(=O)N[C@@H](CCCNC(=N)N)C(=O)N[C@@H](CCC(=O)O)C(=O)N[C@@H](C)C(=O)N[C@@H](C)C(=O)N[C@@H](CCC(=O)O)C(=O)N[C@@H](C)C(=O)N[C@@H](C)C(=O)N[C@@H](CCC(N)=O)C(=O)N[C@@H](C)C(=O)N[C@@H](C)C(=O)N[C@@H](CCC(=O)O)C(=O)O [Biotin‐peptide‐TAT LOF] (HELM PEPTIDE1{[O=C1N[C@H]2[C@H](CS[C@H]2CCCCC(=O)[*:2])N1].L.Y.P.C.I.D.S.H.L.G.E.P.H.K.F.K.R.E.A.A.E.A.A.Q.A.A.E}$$$$V2.0)
peptide accumulation in tumor cells in vitro (Huh7 cells): substantially reduced peptide accumulation

Molecule: COc1cc2nccc(Oc3ccc(NC(=O)NC4CC4)c(Cl)c3)c2cc1C(N)=O [lenvatinib, reference compound]
lipid accumulation in tumor tissues (Oil Red O) [1]: reductions were also observed | cell apoptosis in tumor tissues (TUNEL) (tumor cell apoptosis): induced cell apoptosis in tumor tissues | Insig1 S207/Insig2 S151 phosphorylation in tumors [2]: reductions were also observed | Ki67 expression in tumors [2]: reductions were also observed | SREBP1 expression and nuclear accumulation in tumors [2]: reductions were also observed

Kd (WT GST-PCK1): 36.8 µM | Kd [3]: 10.5 µM
Molecule: LYPCIDSHLGEPHKFKRE [Insig1/2 loop 1 peptide (143-LYPCIDSHLGEPHKFKRE-160)]
